A short description of one series: Photostability. Type of series: physicochemical. Conditions: 500 μg/mL in 50% aq. MeOH, simulated confirmatory and forced degradation sunlight conditions. The method, then:
MeOH also was evaluated under simulated confirmatory and forced degradation sunlight conditions.

A short description of the next series: Binding to HLM. As to conditions: human liver microsomes.

One may read the fraction unbound as the share of the substance not bound to proteins or other matrix. A high value points to weak binding. For the compound `[2H]C([2H])([2H])C1(C([2H])([2H])[2H])NC(=O)N(c2ccc(F)c(C(C)(F)F)c2)C1=O` [Compound IE, 3-(3-(1,1-difluoroethyl)-4-fluorophenyl)-5,5-bis(methyl-d3)imidazolidine-2,4-dione], the “loss of parent compound (photostability)” value in the series “Photostability” was below 3%. The compound further displayed a fraction unbound in “Binding to HLM” of 1.
